Several values for one entry are separate records, joined by “and”; a condition that tells them apart may be missing. Equal entries are not always repeated. Entries after “also recorded” stand apart in the source; their conditions may differ.
What was measured:
human NTPDase1 = target: T1, human NTPDase1 (Homo sapiens, UniProt P49961); assay: Hydrolysis by NTPDase1; assay type: biochemical; conditions: 100 μM substrate; relative to ATP hydrolysis (100%)
T1 sequence (P49961 1-510): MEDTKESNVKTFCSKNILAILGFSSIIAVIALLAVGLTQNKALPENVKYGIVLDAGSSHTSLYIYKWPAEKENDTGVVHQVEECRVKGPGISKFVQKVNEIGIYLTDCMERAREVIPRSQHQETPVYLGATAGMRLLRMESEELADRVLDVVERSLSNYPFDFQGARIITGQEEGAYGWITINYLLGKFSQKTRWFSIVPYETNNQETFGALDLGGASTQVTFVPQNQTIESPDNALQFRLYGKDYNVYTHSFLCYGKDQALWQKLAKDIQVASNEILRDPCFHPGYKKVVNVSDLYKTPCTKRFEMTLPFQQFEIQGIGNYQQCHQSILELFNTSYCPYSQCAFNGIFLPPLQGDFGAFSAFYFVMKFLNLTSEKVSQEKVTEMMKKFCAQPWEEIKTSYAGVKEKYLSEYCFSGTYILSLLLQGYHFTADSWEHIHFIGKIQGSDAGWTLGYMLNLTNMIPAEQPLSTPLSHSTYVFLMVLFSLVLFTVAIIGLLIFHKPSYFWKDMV

[1] = Chemical hydrolysis under gastric juice-like conditions; assay type: physicochemical
human P2Y2 receptor = human P2Y2 receptor (Homo sapiens, UniProt P41231); assay: Increase in [Ca2+]i in 1321N1 astrocytoma cells expressing P2Y2 receptor; assay type: cell-based; conditions: 1321N1 cell transfectants; for EC50: read-out: EC50 of analogue-induced increase in [Ca2+]i, P2Y2
Sequence of human P2Y2 receptor (P41231 whole entry): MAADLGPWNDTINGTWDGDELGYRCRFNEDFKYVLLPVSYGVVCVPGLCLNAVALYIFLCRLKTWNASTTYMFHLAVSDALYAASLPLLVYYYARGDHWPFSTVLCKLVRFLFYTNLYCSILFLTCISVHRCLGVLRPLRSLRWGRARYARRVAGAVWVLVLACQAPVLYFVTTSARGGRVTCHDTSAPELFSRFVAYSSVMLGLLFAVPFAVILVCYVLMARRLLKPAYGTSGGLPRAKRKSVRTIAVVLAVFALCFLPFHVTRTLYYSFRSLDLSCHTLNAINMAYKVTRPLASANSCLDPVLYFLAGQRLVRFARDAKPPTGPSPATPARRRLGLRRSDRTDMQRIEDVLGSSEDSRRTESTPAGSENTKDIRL

turkey P2Y1 receptor = turkey P2Y1 receptor (Meleagris gallopavo, UniProt P49652); assay type: cell-based; conditions: 1321N1 cell transfectants; for EC50: read-out: EC50 of analogue-induced increase in [Ca2+]i, P2Y1
Sequence of turkey P2Y1 receptor (P49652 whole entry): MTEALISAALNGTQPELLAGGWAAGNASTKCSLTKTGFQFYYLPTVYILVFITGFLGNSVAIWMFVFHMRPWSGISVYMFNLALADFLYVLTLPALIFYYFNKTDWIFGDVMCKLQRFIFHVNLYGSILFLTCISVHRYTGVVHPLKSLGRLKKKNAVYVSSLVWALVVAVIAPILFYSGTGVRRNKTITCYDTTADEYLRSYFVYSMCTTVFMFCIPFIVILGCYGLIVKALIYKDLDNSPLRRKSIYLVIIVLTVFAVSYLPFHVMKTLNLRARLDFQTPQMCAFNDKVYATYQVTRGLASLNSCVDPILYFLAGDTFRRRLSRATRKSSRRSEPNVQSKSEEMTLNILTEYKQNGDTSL

human NPP3 = target: T2, human NPP3 (Homo sapiens, UniProt O14638); assay: Hydrolysis by NPP3; assay type: biochemical; conditions: 100 μM substrate; relative to pnp-TMP hydrolysis (100%)
T2 sequence (O14638 1-875): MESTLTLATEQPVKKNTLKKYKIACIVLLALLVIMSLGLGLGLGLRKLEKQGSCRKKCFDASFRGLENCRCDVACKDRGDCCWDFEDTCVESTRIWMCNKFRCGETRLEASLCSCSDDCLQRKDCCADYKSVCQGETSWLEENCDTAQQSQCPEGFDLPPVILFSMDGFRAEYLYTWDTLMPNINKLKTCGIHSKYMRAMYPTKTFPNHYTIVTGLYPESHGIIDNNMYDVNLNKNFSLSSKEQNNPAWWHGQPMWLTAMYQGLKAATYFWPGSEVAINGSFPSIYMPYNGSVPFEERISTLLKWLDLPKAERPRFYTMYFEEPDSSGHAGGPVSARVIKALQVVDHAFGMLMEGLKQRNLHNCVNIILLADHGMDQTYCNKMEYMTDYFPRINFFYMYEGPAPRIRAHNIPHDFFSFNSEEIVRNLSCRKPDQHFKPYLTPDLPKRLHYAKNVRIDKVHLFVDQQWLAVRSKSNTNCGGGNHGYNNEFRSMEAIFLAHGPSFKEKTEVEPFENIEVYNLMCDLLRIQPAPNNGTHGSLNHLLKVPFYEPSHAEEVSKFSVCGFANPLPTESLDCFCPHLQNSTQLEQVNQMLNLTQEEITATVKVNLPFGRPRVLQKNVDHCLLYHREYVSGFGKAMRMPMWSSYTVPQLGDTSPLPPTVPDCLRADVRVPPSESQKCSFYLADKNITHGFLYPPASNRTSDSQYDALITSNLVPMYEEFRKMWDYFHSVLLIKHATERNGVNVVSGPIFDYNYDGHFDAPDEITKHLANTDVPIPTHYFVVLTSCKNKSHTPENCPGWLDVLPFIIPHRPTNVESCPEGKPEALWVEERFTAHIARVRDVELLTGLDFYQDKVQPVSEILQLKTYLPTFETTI

[2] = Stability in human blood serum, Method B; conditions: Method B; 37 °C, up to 144 h

With [BH3-][P+](O)(OC[C@H]1O[C@@H](n2cnc3c(N)ncnc32)[C@H](O)[C@@H]1O)OP(=O)(O)CP(=O)(O)O (single isomer, unassigned) [3B, Adenosine-5′-O-(α-boranotriphosphate)-β,γ-CH2] the “Relative activity of NTPDase1” value (human NTPDase1) was 0%, the fraction degraded ([1]; 0.2 M HCl/KCl pH 1.4, 37 °C, after 19 h) was 50% and the “t1/2 of acidic hydrolysis” value ([1]; KCl/HCl buffer pH 1.4, 37 °C, 31P NMR (2) or HPLC-MS (3B, 4B)) was 19 h. The “agonist activity at P2Y2R” value (human P2Y2 receptor) was “insignificant activities”, the EC50 (human P2Y2 receptor) was > 100 µM and the “agonist activity at P2Y1R” value (turkey P2Y1 receptor) was “insignificant activities”. The EC50 (turkey P2Y1 receptor) was > 100 µM and the “Relative activity of NPP3” value (human NPP3) was 3.0 ± 0.05%.
In the case of [BH3-][P+](O)(OC[C@H]1O[C@@H](n2cnc3c(N)nc(SC)nc32)[C@H](O)[C@@H]1O)OP(=O)(O)CP(=O)(O)O (single isomer, unassigned) [4A, 2-MeS–adenosine-5′-O-(α-boranotriphosphate)-β,γ-CH2], the “Relative activity of NTPDase1” value (human NTPDase1) is reported as <1%, the “agonist activity at P2Y2R” value (human P2Y2 receptor) is reported as “insignificant activities; also recorded: inactivity” and the EC50 (human P2Y2 receptor) is reported as > 100 µM. The “resistance to enzymatic hydrolysis in human blood serum” value [2] was “completely resistant to enzymatic hydrolysis for at least 6 days”, the “agonist activity at P2Y1R” value (turkey P2Y1 receptor) was “insignificant activities; also recorded: practically inactive; also recorded: no activity” and the EC50 (turkey P2Y1 receptor) was > 100 µM. For the same molecule, the “Relative activity of NPP3” value (human NPP3) was 10% and 9.9 ± 0.5%.
In the case of [BH3-][P+](O)(OC[C@H]1O[C@@H](n2cnc3c(N)ncnc32)[C@H](O)[C@@H]1O)OP(=O)(O)CP(=O)(O)O (single isomer, unassigned) [3A, Adenosine-5′-O-(α-boranotriphosphate)-β,γ-CH2], the “Relative activity of NTPDase1” value (human NTPDase1) is reported as 1.0 ± 2.1%, the “agonist activity at P2Y2R” value (human P2Y2 receptor) is reported as “insignificant activities” and the EC50 (human P2Y2 receptor) is reported as > 100 µM. The “agonist activity at P2Y1R” value (turkey P2Y1 receptor) was “insignificant activities; also recorded: practically inactive”, the EC50 (turkey P2Y1 receptor) was > 100 µM and the “Relative activity of NPP3” value (human NPP3) was 0%.

From publication PMC4354951 (European journal of medicinal chemistry, 2008)
